How the values were obtained:
Assay type in all cases: functional, cell-based
Adenosine receptor A2a = Adenosine receptor A2a (Homo sapiens, UniProt P29274); experiment: Agonist activity at human A2A receptor expressed in Flp-In-CHO cells assessed as cAMP accumulation incubated for 30 mins by LANCE cAMP assay
Adenosine receptor A1 [1] = target: T1, Adenosine receptor A1 (Homo sapiens, UniProt P30542); experiment: Agonist activity at human A1 receptor expressed in Flp-In-CHO cells assessed as inhibition of forskolin stimulated cAMP accumulation incubated for 30 mins by LANCE cAMP assay
T1 sequence (P30542 whole entry): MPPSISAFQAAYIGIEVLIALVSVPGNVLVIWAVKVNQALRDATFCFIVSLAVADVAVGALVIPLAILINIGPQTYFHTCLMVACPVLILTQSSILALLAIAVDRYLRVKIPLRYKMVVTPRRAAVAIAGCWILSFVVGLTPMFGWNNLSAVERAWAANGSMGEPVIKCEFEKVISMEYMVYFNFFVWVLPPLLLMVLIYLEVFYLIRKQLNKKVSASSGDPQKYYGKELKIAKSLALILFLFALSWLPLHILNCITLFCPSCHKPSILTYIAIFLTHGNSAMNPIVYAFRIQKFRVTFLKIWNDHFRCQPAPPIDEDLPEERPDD

Adenosine receptor A1 [2] = target: T1, Adenosine receptor A1; experiment: Agonist activity at human A1 receptor expressed in Flp-In-CHO cells assessed as stimulation of calcium mobilization by calcium mobilization assay
Adenosine receptor A2b = target: T2, Adenosine receptor A2b (Homo sapiens, UniProt P29275); experiment: Agonist activity at human A2B receptor expressed in Flp-In-CHO cells assessed as cAMP accumulation incubated for 10 mins in presence of forskolin by LANCE cAMP assay
T2 sequence (P29275 whole entry): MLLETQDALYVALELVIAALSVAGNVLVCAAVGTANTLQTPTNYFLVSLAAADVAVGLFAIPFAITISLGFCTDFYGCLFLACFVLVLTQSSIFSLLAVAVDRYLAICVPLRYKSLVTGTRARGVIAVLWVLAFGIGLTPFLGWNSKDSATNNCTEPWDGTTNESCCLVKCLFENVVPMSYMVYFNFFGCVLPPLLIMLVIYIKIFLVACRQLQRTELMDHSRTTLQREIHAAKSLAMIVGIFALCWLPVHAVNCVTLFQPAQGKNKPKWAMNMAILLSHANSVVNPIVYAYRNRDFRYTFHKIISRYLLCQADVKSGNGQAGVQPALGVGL

Chain of Adenosine receptor A2a (P29274 whole entry): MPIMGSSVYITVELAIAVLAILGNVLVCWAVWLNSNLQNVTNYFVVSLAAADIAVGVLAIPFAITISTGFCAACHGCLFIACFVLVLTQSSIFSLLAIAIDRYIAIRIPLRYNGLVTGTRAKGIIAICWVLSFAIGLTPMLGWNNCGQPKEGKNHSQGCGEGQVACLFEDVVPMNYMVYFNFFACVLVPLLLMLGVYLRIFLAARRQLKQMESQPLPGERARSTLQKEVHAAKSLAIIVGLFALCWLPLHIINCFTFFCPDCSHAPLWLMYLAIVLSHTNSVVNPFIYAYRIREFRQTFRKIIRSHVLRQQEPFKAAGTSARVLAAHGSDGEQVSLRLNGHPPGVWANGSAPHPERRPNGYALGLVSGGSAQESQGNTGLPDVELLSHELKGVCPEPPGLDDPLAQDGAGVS

Row | EC50 (Adenosine receptor A2a) [nM] | EC50 (Adenosine receptor A1 [1]) [nM] | EC50 (Adenosine receptor A1 [2]) [nM] | EC50 (Adenosine receptor A2b) [nM] | Compound
1 | 389 | – | – | – | Nc1sc(-c2ccc(C(=O)NCCCCCCNc3ncnc4c3ncn4[C@@H]3O[C@H](CO)[C@@H](O)[C@H]3O)cc2)c(-c2cccc(C(F)(F)F)c2)c1C(=O)c1ccccc1
2 | 363 | 550 | > 10000 | 52.5 | Nc1sc(-c2ccc(C(=O)NCCc3ccc(CCNc4ncnc5c4ncn5[C@@H]4O[C@H](CO)[C@@H](O)[C@H]4O)cc3)cc2)c(-c2cccc(C(F)(F)F)c2)c1C(=O)c1ccccc1
3 | 741 | – | – | – | Nc1sc(-c2ccc(C(=O)NCCC#Cc3ccc(Nc4ncnc5c4ncn5[C@@H]4O[C@H](CO)[C@@H](O)[C@H]4O)cc3)cc2)c(-c2cccc(C(F)(F)F)c2)c1C(=O)c1ccccc1
